Experimental data: patent US20160075682A1, “INHIBITORS OF NICOTINAMIDE PHOSPHORIBOSYLTRANSFERASE, COMPOSITIONS, PRODUCTS AND USES THEREOF” (UNIVERSITÀ DEGLI STUDI DEL PIEMONTE ORIENTALE "AMEDEO …, priority 2013, published 2016)

Key:
SH-SY5Y, HeLa = assay: MTT cell proliferation assay and trypan blue count (cell viability); type: cell-based; conditions: cells treated for 48 and 72 hours; read-out: IC50 values (inhibition of cellular proliferation, MTT assay and trypan blue assay)
Outline: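 SH-SY5Y and HeLa cells, 8×10^5 per well, exposed 48 and 72 h with final DMSO ≤0.5%. Viability by MTT (250 μg/ml, 1 h, A570 after isopropanol/HCl) and by trypan blue count. IC50 from dose-response curves for some compounds.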

[1] = tested on: spinal cord injury in male adult CD1 mice; assay: Spinal cord injury by clip compression, motor function; type: in vivo; conditions: i.p. one and 6 hours post injury
Protocol: Male adult CD1 mice (25-30 g, Harlan Nossan, Milan, Italy) were used for all studies. Mice were housed in individual cages (5 for each group) and maintained under 12:12 light-dark cycle at 21±1° C. and 50±5% humidity.
Spinal cord injury (SCI) was induced in male adult mice by the clip compression technique (Genovese et al. J. Pharmacol. Exp. Ther. 2008a, 325, 100-14). SHAM-operated animals were taken as control. Drugs were given i.p. one and 6 hours post injury. Animal care was in compliance with Italian regulations on protection of animals used for experimental and other scientific purpose (D.M. 116192) and with the EEC regulations (O.J. of E.C. L 358/1 Dec. 18, 1986). Animals were sacrificed at post-injury (at least five animals/experimental group were analysed).
The motor function of mice subjected to SCI was assessed once a day for 7 days after injury.
The evaluations were made by two blind observers for all analyzed groups.
Briefly, the BMS is a nine-point scale that pro vides a gross indication of locomotor ability and determines the phases of locomotor recovery and features of locomotion. The BMS score was determined for ten mice in each group. Spinal cord tissues were taken at 24 hours after trauma. Tissue was used for histological grading of the damage or for immunocytochemistry with inflammation, cell death or autophagy markers.
As previously described, the spinal cord of male adult CD1 mice was injured by the clip compression technique, compound of formula (I) was administered and the motor function was assessed.

[2] = Microsomal stability with rat liver microsomes; type: in vitro ADME, Male Wistar rat; conditions: 50 μM substrate, 1.0 mg/mL protein, 60 minutes at 37° C., pH 7.4
Protocol: (§1) Male Wistar rat liver microsomes (RLM), (protein concentration: 25 mg/ml determined using the Omura and Sato method, total P450: 0.64 nmol/mg protein) were used throughout this study and prepared using an internal protocol. The cryopreserved pooled human liver microsomes (HLM), (pooled mixed sex, ten individual donors, protein concentration: 20 mg/ml, total P450: 0.36 nmol/mg) were purchased from BD Gentest™ (Woburn, Mass.) and used throughout this study.
(§2) The standard incubation mixture (1 ml final volume), was carried out in a 50 mM TRIS (Tris[hydroxymethyl]aminomethane) buffer (pH 7.4) containing 10 μl of acetonitrile (1% of total volume), and 50 μM substrate compounds. After pre-equilibration of the mixture, an appropriate volume of RLM or HLM suspension was added to give a final protein concentration of 1.0 mg/mL. The mixture was shaken for 60 minutes at 37° C. Control incubations were carried out without microsomes. Each incubation was stopped by addition of 1 ml ice-cold acetonitrile, vortexed and centrifuged at 11,000 r.p.m. for 5 min. The supernatants were analysed by LC-DAD-UV and LC-ESI-MS systems to determine the metabolic stability (% substrate residue) and the structure of metabolites respectively (Table 1).
(§3) A Shimadzu HPLC system (Shimadzu, Kyoto, Japan), consisting of two LC-10AD Vp module pumps, an SLC-10A Vp system controller, an SIL-10AD Vp autosampler, and a DGU-14-A on-line degasser were used for the analysis. Chromatographic separation was performed on a Phenomenex Luna C18(2) 150×4.6 mm (5 μm) (Phenomenex srl, Castel Bolognese, Italy) as a stationary phase protected by a C18 SecurityGuard (Phenomenex srl, Castel Bolognese, Italy). The SPD-M10Avp photodiode array detector was used to detect the analytes. LC-Solution 1.24 software was used to process the chromatograms. Aliquots (20 μL) of supernatants obtained from incubations were injected onto the HPLC system and eluted with a mobile phase (flow rate 1.0 mL/min) consisting of a A: 0.5% formic acid solution, B: acetonitrile/methanol 8:2. A Thermo Finningan LCQ Deca XP plus system equipped with a quaternary pump, a Surveyor AS autosampler, a Surveyor photodiode array detector and a vacuum degasser was used for LC/MS analyses (Thermo Electron Corporation, Waltham, Mass.). All the chromatographic separations were performed on a Phenomenex Luna C18(2)150×2 mm (4 μm) (kept at a 35° C.) as a stationary phase protected by a C18 SecurityGuard (Phenomenex srl, Castel Bolognese, Italy). Aliquots (2.0 μl) of supernatants obtained from incubations were injected onto the system and eluted with a mobile phase (flow rate 0.2 ml/min) consisting of a A: 0.2% formic acid solution, B: acetonitrile/methanol 8:2. The eluate was injected into the electrospray ion source (ESI) and MS and MS^n spectra were acquired and processed using Xcalibur® software. The operating conditions on the ion trap mass spectrometer were as follows: Positive mode, spray voltage, 5.30 kV; source current, 80 μA; capillary temperature, 350° C.; capillary voltage, 21.00 V; tube lens offset, 15.00 V; multipole 1 offset, −5.75 V; multipole 2 offset, −9.00 V; sheath gas flow (N2), 55 Auxiliary Units.

[3] = Microsomal stability with human liver microsomes; type: in vitro ADME; conditions: 50 μM substrate, 1.0 mg/mL protein, 60 minutes at 37° C., pH 7.4
Protocol: as §1, §2, §3

Structure (SMILES)	IC50 (SH-SY5Y, HeLa) [nM]	motor recovery [1]	protection from injury [1]	RLM stability % substrate residue (area peak) [2] [%]	HLM stability % substrate residue (area peak) [3] [%]
O=C(NCCCCCCCn1cc(-c2cccnc2)nn1)c1ccccc1-c1ccccc1 [N-(7-(4-(pyridin-3-yl)-1H-1,2,3-triazol-1-yl)heptyl)-[1,1′-biphenyl]-2-carboxamide]	< 300	partial motor recovery	partially protect from injury	>99	>99
c1ccc(-c2ccccc2OCCCCCCn2cc(-c3cccnc3)nn2)cc1 [3-(1-(6-([1,1′-biphenyl]-2-yloxy)hexyl)-1H-1,2,3-triazol-4-yl)pyridine]	< 300	partial motor recovery	partially protect from injury	>98	>96
